Data set [1] in a line: AUC (0 to t) in ICR mouse at 15 mg/kg, IG measured for 12 hrs by LC-MS/MS analysis. Type of data set: ADME, organism-based. The conditions noted are these: in vivo, po.
Data set [2] in a line: Cmax in ICR mouse at 15 mg/kg, IG measured for 12 hrs by LC-MS/MS analysis. Type of data set: ADME, organism-based. The conditions noted are these: in vivo, po.
Data set [3] in a line: Tmax in ICR mouse at 15 mg/kg, IG measured for 12 hrs by LC-MS/MS analysis. Type of data set: ADME, organism-based. The conditions noted are these: in vivo, po.
Data set [4] relates to THP-1. The experiment in a line: cells. The conditions noted are these: Homo sapiens, THP-1, 24 h.
Description: Cytotoxicity against human THP-1 cells assessed as inhibition of cell viability incubated for 24 hrs by CCK8 assay
The nature of data set [5]: Tmax in colon of ICR mouse at 15 mg/kg, IG measured for 12 hrs by LC-MS/MS analysis. It counts as ADME, organism-based. The conditions noted are these: po.
Data set [6] is described as follows: Half life in colon of ICR mouse at 15 mg/kg, IG measured for 12 hrs by LC-MS/MS analysis. Particulars: po. It counts as ADME, organism-based.
Data set [7] can be described thus: MRT (0 to t) in colon of ICR mouse at 15 mg/kg, IG measured for 12 hrs by LC-MS/MS analysis. Type of data set: ADME, organism-based. The conditions noted are these: po.
The nature of data set [8]: Half life in ICR mouse at 15 mg/kg, IG measured for 12 hrs by LC-MS/MS analysis. It counts as ADME, organism-based. Particulars: in vivo, po, 15 mg/kg, 12 h.
A short description of data set [9]: AUC (0 to t) in colon of ICR mouse at 15 mg/kg, IG measured for 12 hrs by LC-MS/MS analysis. It counts as ADME, organism-based. The conditions noted are these: po.
Data set [10] is described as follows: Cmax in colon of ICR mouse at 15 mg/kg, IG measured for 12 hrs by LC-MS/MS analysis. It counts as ADME, organism-based. Particulars: po.
Data set [11] can be described thus: MRT (0 to t) in ICR mouse at 15 mg/kg, IG measured for 12 hrs by LC-MS/MS analysis. Type of data set: ADME, organism-based. The conditions noted are these: in vivo, po.
Data set [12] deals with T1, Pyruvate carboxylase, mitochondrial (Homo sapiens, UniProt P11498).
T1 sequence (P11498 whole entry): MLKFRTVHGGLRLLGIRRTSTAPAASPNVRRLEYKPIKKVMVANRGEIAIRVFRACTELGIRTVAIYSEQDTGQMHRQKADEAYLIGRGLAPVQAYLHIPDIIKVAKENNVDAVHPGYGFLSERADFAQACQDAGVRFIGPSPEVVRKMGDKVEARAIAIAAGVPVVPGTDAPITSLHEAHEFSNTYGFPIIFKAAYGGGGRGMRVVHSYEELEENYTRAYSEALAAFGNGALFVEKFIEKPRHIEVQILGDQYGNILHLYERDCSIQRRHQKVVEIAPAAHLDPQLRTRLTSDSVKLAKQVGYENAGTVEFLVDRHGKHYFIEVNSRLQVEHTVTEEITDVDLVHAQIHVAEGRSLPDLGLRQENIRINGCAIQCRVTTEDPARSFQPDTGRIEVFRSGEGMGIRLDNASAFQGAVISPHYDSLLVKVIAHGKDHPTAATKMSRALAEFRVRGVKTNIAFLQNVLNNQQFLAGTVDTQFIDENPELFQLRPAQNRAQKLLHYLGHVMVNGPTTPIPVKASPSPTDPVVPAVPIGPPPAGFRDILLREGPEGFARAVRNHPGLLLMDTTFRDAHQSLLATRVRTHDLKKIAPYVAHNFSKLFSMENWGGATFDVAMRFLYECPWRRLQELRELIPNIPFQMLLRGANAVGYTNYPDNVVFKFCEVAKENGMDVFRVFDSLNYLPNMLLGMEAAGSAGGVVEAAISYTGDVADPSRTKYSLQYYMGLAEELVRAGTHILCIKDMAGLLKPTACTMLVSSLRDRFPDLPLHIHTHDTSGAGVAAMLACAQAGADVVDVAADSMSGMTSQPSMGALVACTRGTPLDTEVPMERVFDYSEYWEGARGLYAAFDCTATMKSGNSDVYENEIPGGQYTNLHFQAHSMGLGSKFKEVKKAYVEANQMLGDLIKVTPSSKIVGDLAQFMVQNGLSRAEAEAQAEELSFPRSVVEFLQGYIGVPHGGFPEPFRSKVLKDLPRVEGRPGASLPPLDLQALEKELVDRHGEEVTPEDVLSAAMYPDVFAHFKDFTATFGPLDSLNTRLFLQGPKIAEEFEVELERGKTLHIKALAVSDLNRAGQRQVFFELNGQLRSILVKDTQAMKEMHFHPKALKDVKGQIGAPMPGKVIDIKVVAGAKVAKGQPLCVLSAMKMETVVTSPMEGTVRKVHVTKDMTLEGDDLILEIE
Put plainly: Inhibition of pyruvate carboxylase (unknown origin) by NADH-malate dehydrogenase based spectrophotometry.

In data set [13] the test system is Mus musculus. Put plainly: Anti-colitis activity in DSS-induced colitis mouse model at 20 to 40 mg/kg. It counts as functional, organism-based. Particulars: dose 20-40 mg/kg.
For data set [14], the system named is Mus musculus. The experiment in a line: Anti-colitis activity in ICR mouse model assessed as reversal of DSS-induced colon shortening administered intragastrically for 9 days consecutively. Type of data set: functional, organism-based. The conditions noted are these: route ig, time 9.0 day.
Data set [15] relates to Mus musculus. The experiment in a line: Anti-colitis activity in ICR mouse model assessed as reversal of DSS-induced splenomegaly at 400 mg/kg, IG treated for 9 days consecutively. Type of data set: functional, organism-based. The conditions noted are these: time 9.0 day.
In data set [16] the test system is Mus musculus. Put plainly: Anti-colitis activity in ICR mouse model of DSS-induced colitis assessed as decrease in DAI score at 400 mg/kg, IG treated for 9 days consecutively. Type of data set: functional, organism-based. The conditions noted are these: time 9.0 day.
The test system of data set [17] is Mus musculus. Put plainly: Anti-colitis activity in ICR mouse model assessed as decrease in DSS-induced body weight loss at 400 mg/kg, IG treated for 9 days consecutively. It counts as functional, organism-based. The conditions noted are these: time 9.0 day.
Data set [18] concerns Mus musculus. Put plainly: Anti-colitis activity in ICR mouse model assessed as reversal of DSS-induced spleen weight at 400 mg/kg, IG treated for 9 days consecutively. It counts as functional, organism-based. The conditions noted are these: time 9.0 day.

The values that follow come from ChEMBL document CHEMBL5543173, “Discovery of a New Anti-Inflammatory Agent from Anemoside B4 Derivatives and Its Therapeutic Effect on Colitis by Targeting Pyruvate Carboxylase” (J Med Chem, 2024).

By Cmax is commonly meant the highest concentration seen after dosing. As usually defined, the Tmax is the time at which the peak concentration occurs. In general, IC50 refers to the concentration that inhibits the measured activity by half. For orientation: half-life means the time needed for the level to fall by half in the phase considered. Read a high half-life as slow loss. As usually defined, the MRT last is a mean duration of stay, worked out from the concentration-time curve. As usually defined, the AUC(0-t) is exposure summed from dosing to a finite time, without extrapolation to infinity. Higher therefore signals high exposure.

The source made the active and inactive calls. Bounds are passed on as bounds.

As for `C=C(C)[C@@H]1CC[C@]2(C(=O)O[C@@H]3O[C@H](CO[C@@H]4O[C@H](CO)[C@@H](O[C@@H]5O[C@@H](C)[C@H](O)[C@@H](O)[C@H]5O)[C@H](O)[C@H]4O)[C@@H](O)[C@H](O)[C@H]3O)CC[C@]3(C)[C@H](CC[C@@H]4[C@@]5(C)CC[C@H](O[C@@H]6OC[C@H](O)[C@H](O)[C@H]6O[C@@H]6O[C@@H](C)[C@H](O)[C@@H](O)[C@H]6O)[C@@](C)(CO)[C@@H]5CC[C@]43C)[C@@H]12`, the AUCt in data set [1] is 2.46 ng·h/mL. Besides, the figures for the Cmax in data set [2] and in data set [10] were 0.58 ng/mL and 7.12 ng/mL, respectively. Moreover, the Tmax came to 0.46 h in data set [3] and 1.92 h in data set [5]. This compound yielded an IC50 in [4] of no less than 80 µM. The half-life in data set [6] is 4.65 h. Further, the MRT last at 12 h in data set [7] is 4.38 h; in data set [11], 5.13 h. In data set [8], this compound yielded a t1/2 of 4.74 h. In [9], the AUC(0-t) at 12 h turned out to be 30.2 ng·h/mL.
For `C=C(C)[C@@H]1CC[C@]2(C(=O)O)CC[C@]3(C)[C@H](CC[C@@H]4[C@@]5(C)CC[C@H](O[C@@H]6OC[C@H](O)[C@H](O)[C@H]6O[C@@H]6O[C@@H](C)[C@H](O)[C@@H](O)[C@H]6O)[C@@](C)(CO)[C@@H]5CC[C@]43C)[C@@H]12`, the IC50 in data set [12] is greater than 10 µM; in data set [4], no less than 80 µM. Moreover, the result in data set [13] was inactive.
With `Nc1ccc(O)c(C(=O)O)c1`, the Activity result in data set [14] is “Dose-Dependent Effect”. Further, the result in data set [15], in data set [16], in [17] and in data set [18] was Active.
